The subject of assay [1] is MDA-MB-231 breast cancer cells. Description: Cell viability, MTS end-point assay. The class given is cell-based, human. The conditions noted are these: synthetic CbA, 72 h, vehicle 0.1% DMSO. As to the method: (§1) Figure 1 Cytotoxicity of synthetic and Pra-containing coibamides. (A) Structure of CbA. (B) Human MDA-MB-231 breast cancer cells were treated with increasing concentrations of synthetic CbA or vehicle (0.1% DMSO) and cell viability assessed at 72 h by an MTS end-point assay. (C) Structure of Photo-CbA. (D) Human HCT116 cells were treated with increasing concentrations of synthetic or photo-CbA in 0.1% DMSO, and cell viability assessed at 72 h by Alamar Blue assay. TEXT PRINTED IN THE PICTURE: (B) CbA: MDA-MB-231 cell line: IC50(nM): 1.6 | (D) CbA: HCT 116 cell line: IC50(nM): 29.2 | (D) Photo-CbA: HCT 116 cell line: IC50(nM): 6.5
A431, HEK293T, and HEK293FRT cells were cultured in DMEM supplemented with 10% FBS. HCT-116 cells were cultured in McCoy’s 5A media supplemented with 10% FBS. U87-MG cells were cultured in Minimum Essential Media (MEM) with 10% FBS, L-glutamine (2 mM), and 1% penicillin and streptomycin. MDA-MB-231 cells were cultured in MEM with Earl’s salts plus 1% penicillin/streptomycin and 10% FBS. All cell lines were incubated at 37 °C under 5% CO2. The activity of synthetic coibamide and photoaffinity analogues was tested in MDA-MB-231 and A549 cells after 72 h by MTS assay. […] Viability was estimated by the addition of Alamar Blue (Life Technologies) and measuring fluorescence after a further 4 h. […]
For orientation: Formazan colour is commonly taken as a measure of viable cells.

The target in assay [2] is HEK293FRT cells stably expressing Sec61α WT (Homo sapiens, UniProt P61619). In words: Cell viability, Alamar Blue, Sec61α engineered lines. The following applies: 72 h, n = 4 (Figure 5B). The assay is classed as cell-based. On the procedure: (§2) Figure 5 CbA mode of inhibition is specific compared to known Sec61 inhibitors. (A) Cell viability was measured by Alamar Blue assay (mean ± SD, n = 4, all cell lines assayed simultaneously) for HCT-116 cell lines isolated on the basis of CbA resistance in the presence of concentration series of indicated compounds. (B) Cell viability was measured by Alamar Blue assay (mean ± SD, n = 4, all cell lines assayed simultaneously) for HEK293FRT cells stably expressing Sec61α mutants in the presence of concentration series of indicated compounds. (C) Comparison of published NCI60 data for CbA,[3] AprA,[11] and IpoF.[33] The heat map was derived by plotting each GI50 value divided by the median GI50 for that compound. X indicates a cell line that was not tested. Closed arrowhead indicates cell lines with most notable differences across the three compounds. […]
Sequence of HEK293FRT cells stably expressing Sec61α WT (P61619 whole entry): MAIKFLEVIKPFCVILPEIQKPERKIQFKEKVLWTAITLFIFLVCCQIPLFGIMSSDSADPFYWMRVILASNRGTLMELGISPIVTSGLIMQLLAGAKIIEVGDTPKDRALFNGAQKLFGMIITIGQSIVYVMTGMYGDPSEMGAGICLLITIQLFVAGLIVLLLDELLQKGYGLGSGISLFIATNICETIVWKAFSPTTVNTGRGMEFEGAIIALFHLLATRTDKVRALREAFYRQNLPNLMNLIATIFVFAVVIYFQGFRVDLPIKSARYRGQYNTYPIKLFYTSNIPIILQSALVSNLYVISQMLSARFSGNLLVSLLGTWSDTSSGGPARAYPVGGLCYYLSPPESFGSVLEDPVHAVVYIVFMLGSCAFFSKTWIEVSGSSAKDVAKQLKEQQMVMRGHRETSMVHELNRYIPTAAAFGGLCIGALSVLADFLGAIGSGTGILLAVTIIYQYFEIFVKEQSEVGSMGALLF
(§3) A431, HEK293T, and HEK293FRT cells were cultured in DMEM supplemented with 10% FBS. […] Viability was estimated by the addition of Alamar Blue (Life Technologies) and measuring fluorescence after a further 4 h. […]
(In general: Alamar Blue is a resazurin reagent that responds to reducing activity.)

Assay [3] concerns HCT116 resistant line 100-2. Description: Cell viability, Alamar Blue, CbA-resistant line. The class given is cell-based, human. The following applies: 72 h, n = 4 (Figure 5A), read-out: HCT116 Resistant lines IC50 (100-2). As to the method:
(§4) Figure 5 CbA mode of inhibition is specific compared to known Sec61 inhibitors. (A) Cell viability was measured by Alamar Blue assay (mean ± SD, n = 4, all cell lines assayed simultaneously) for HCT-116 cell lines isolated on the basis of CbA resistance in the presence of concentration series of indicated compounds. (B) Cell viability was measured by Alamar Blue assay (mean ± SD, n = 4, all cell lines assayed simultaneously) for HEK293FRT cells stably expressing Sec61α mutants in the presence of concentration series of indicated compounds. (C) Comparison of published NCI60 data for CbA,[3] AprA,[11] and IpoF.[33] The heat map was derived by plotting each GI50 value divided by the median GI50 for that compound. X indicates a cell line that was not tested. Closed arrowhead indicates cell lines with most notable differences across the three compounds. TEXT PRINTED IN THE PICTURE: (A) CbA: HCT116 Resistant lines IC50(nM): 24 (WT); HCT116 Resistant lines IC50(nM): 6500 (100-1); HCT116 Resistant lines IC50(nM): 7500 (100-2); HCT116 Resistant lines IC50(nM): 5800 (100-3); HCT116 Resistant lines IC50(nM): 7800 (100-4); HCT116 Resistant lines IC50(nM): 3800 (100-5) | (A) AprA: HCT116 Resistant lines IC50(nM): 80 (WT); HCT116 Resistant lines IC50(nM): >10000 (100-1); HCT116 Resistant lines IC50(nM): >10000 (100-2); HCT116 Resistant lines IC50(nM): >10000 (100-3); HCT116 Resistant lines IC50(nM): >10000 (100-4); HCT116 Resistant lines IC50(nM): >10000 (100-5) | (B) CbA: Sec61α engineered lines IC50(nM): 12 (WT); Sec61α engineered lines IC50(nM): 83 (R66I); Sec61α engineered lines IC50(nM): 20 (T86M); Sec61α engineered lines IC50(nM): 81 (S82P) | (B) AprA: Sec61α engineered lines IC50(nM): 24 (WT); Sec61α engineered lines IC50(nM): >10000 (R66I); Sec61α engineered lines IC50(nM): 2500 (T86M); Sec61α engineered lines IC50(nM): 4700 (S82P)
(§5) A431, HEK293T, and HEK293FRT cells were cultured in DMEM supplemented with 10% FBS. HCT-116 cells were cultured in McCoy’s 5A media supplemented with 10% FBS. U87-MG cells were cultured in Minimum Essential Media (MEM) with 10% FBS, L-glutamine (2 mM), and 1% penicillin and streptomycin. MDA-MB-231 cells were cultured in MEM with Earl’s salts plus 1% penicillin/streptomycin and 10% FBS. All cell lines were incubated at 37 °C under 5% CO2. The activity of synthetic coibamide and photoaffinity analogues was tested in MDA-MB-231 and A549 cells after 72 h by MTS assay. All other cell viability assays were performed by seeding PerkinElmer Viewplate-96 plates at a density of 2.5 × 10^3 cells per well. Cells were allowed 24 h to adhere and then treated with indicated concentrations of inhibitors or vehicle (0.1% DMSO) for a further 72 h. Viability was estimated by the addition of Alamar Blue (Life Technologies) and measuring fluorescence after a further 4 h. Pulse-labeling experiments were performed by seeding six-well plates with 5 × 10^5 cells per well and allowing 24 h for cells to adhere. Cells were washed twice with PBS, then exchanged into Met-Cys free media with indicated concentrations of inhibitors for 30 min. 100 μCi of PerkinElmer EXPRE^35S^35S Protein Labeling Mix was then added per well. Media wer collected, and the cells were harvested by scraping them into ice cold PBS after 30 min. Total protein was acquired by RIPA extraction from the cell pellet. Glycosylated protein was acquired by Concanavalin A purification, and secreted protein was acquired by TCA precipitation of the media. […]

Assay [4] relates to HCT116 resistant line 100-4. Description: Cell viability, Alamar Blue, CbA-resistant line. The assay is classed as cell-based, human. The conditions noted are these: 72 h, n = 4 (Figure 5A), read-out: HCT116 Resistant lines IC50 (100-4). As to the method:
as §4, §5

The subject of assay [5] is HCT116 resistant line 100-5. Description: Cell viability, Alamar Blue, CbA-resistant line. The following applies: 72 h, n = 4 (Figure 5A), read-out: HCT116 Resistant lines IC50 (100-5). The class given is cell-based, human. On the procedure:
as §4, §5

The test system of assay [6] is HCT116 resistant line 100-3. In words: Cell viability, Alamar Blue, CbA-resistant line. The assay is classed as cell-based, human. The following applies: 72 h, n = 4 (Figure 5A), read-out: HCT116 Resistant lines IC50 (100-3). On the procedure:
as §4, §5

Assay [7] concerns HCT116 resistant line 100-1. In words: Cell viability, Alamar Blue, CbA-resistant line. The following applies: 72 h, n = 4 (Figure 5A), read-out: HCT116 Resistant lines IC50 (100-1). The class given is cell-based, human. On the procedure: as §4, §5
In assay [8] the test system is A549 human lung adenocarcinoma cells. The following applies: 72 h.
The test system of assay [9] is HCT116 cells. In words: Cell viability, Alamar Blue assay. The class given is cell-based, human. As to the method: as §1, §2, §3

This is an account of results in publication PMC7497630, “Coibamide A Targets Sec61 to Prevent Biogenesis of Secretory and Membrane Proteins” (ACS Chemical Biology, 2020).

In general, IC50 refers to the concentration at which inhibition is half-maximal.

Like-named read-outs stand apart in the source and are kept apart here. Bridge positions count the residues as written; N and C are the ends. Square brackets hold non-standard residues; d marks the D form. Peptide text beside a SMILES is read from it. * marks the point of attachment. NMe2Val = CC(C)[C@@H](C(=O)*)N(C)C; NMeI = CC[C@H](C)[C@H](NC)C(=O)O; NMeT = CN[C@H](C(=O)O)[C@@H](C)O; NMeL = CN[C@@H](CC(C)C)C(=O)O; dHiv = CC(C)[C@@H](O)C(=O)O; NMeS = CN[C@@H](CO)C(=O)O; dNMeA = CN[C@H](C)C(=O)O

Take `CC[C@H](C)[C@H]1C(=O)N[C@@H](C)C(=O)N(C)[C@@H](CC(C)C)C(=O)N[C@@H](Cc2ccc(OC)cc2)C(=O)N(C)[C@H](C)C(=O)O[C@H](C)[C@H](N(C)C(=O)[C@H](CC(C)C)N(C)C(=O)[C@H](COC)N(C)C(=O)[C@H](OC(=O)[C@H](C(C)C)N(C)C)C(C)C)C(=O)N(C)[C@@H](COC)C(=O)N1C` [CbA, Coibamide A] (NMe2Val-[dHiv][NMeS](Me)[NMeL][NMeT][NMeS](Me)[NMeI]A[NMeL]Y(Me)[dNMeA]; ester 4-C): the half-inhibitory concentration (IC50) in assay [1] worked out at 0.0016 µM; in assay [2], 0.012 µM; in [3], 7.5 µM; in assay [4], 7.8 µM; in [5], 3.8 µM; in assay [6], 5.8 µM. The IC50 was 6.5 µM in assay [7]; 0.0021 ± 0.0007 µM in [8]; 0.0292 µM in assay [9] (HCT116, 72 h, 0.1% DMSO (Figure 1D), read-out: IC50); 0.024 µM in [9] (HCT116 WT, 72 h, mean ± SD, n = 4 (Figure 5A), read-out: HCT116 Resistant lines IC50 (WT)).
